# Measurements: PMC7460390, “Secondary Metabolites with Nitric Oxide Inhibition from Marine-Derived Fungus Alternaria sp. 5102” (Marine Drugs, 2020)
# Like-named read-outs stand apart in the source and are kept apart here.
# Key:
# [1] = Cell viability, MTT assay, with LPS treatment; format: cell-based, murine; details: mouse, RAW 264.7 cells, MTT, LPS 1 µg/mL, 24 h, mean ± SD, n = 3
# Method: (§1) In this work, all isolated compounds (1–22) were evaluated for their inhibition of nitric oxide (NO) production in RAW264.7 cells activated by lipopolysaccharide (LPS) using the Griess assay with indomethacin as a positive control (Table 3). […] To investigate whether the inhibitory activities of the active compounds were due to their cytotoxicity, the effects of the tested compounds on cell proliferation/viability were evaluated using the MTT method. […] Therefore, further studies are required to clarify the underlying mechanism of the active compounds.
# (§2) Cell viability was measured using the conventional MTT assay. RAW 264.7 cells were seeded in 96-well plates at a density of 1.5 × 10^5 cells/mL. After 12 h, the cells were treated with LPS (1 µg/mL) and samples, followed by additional incubation for 24 h at 37 °C. MTT stock solution (2 mg/mL) was added to wells for a total reaction volume of 110 µL. After 4 h incubation, the supernatants were aspirated. The formazan crystals in each well were dissolved in 50 µL of DMSO, and the absorbance was measured using a microplate reader (Multiskan GO, Thermo Scientific, Waltham, MA, USA) at the wavelength of 490 nm. Relative cell viability was evaluated based on the quantity of MTT converted to the insoluble formazan salt. The optical density of formazan generated in the control cells represented 100% viability. The data were expressed as mean percentages of the viable cells compared to the respective control.
# [2] = tested on: NO production in RAW264.7 cells activated by lipopolysaccharide; experiment: Inhibition of NO production in LPS-activated RAW264.7 cells (Griess assay); format: cell-based, murine; details: for SI, selectivity index, calculated by CC50/IC50: CC50 (MTT) / IC50 (NO production); for IC50: read-out: IC50, inhibition of LPS-induced NO production
# Method: After pre-incubation of RAW 264.7 cells (1.5 × 10^5 cells/mL) with LPS (1 µg/mL) and samples at 37 °C for 24 h, the quantity of nitrite accumulated in the culture medium was measured as an indicator of NO production. Briefly, 50 µL of cell culture medium were mixed with 100 µL Griess reagent, and incubated at room temperature for 10 min. The absorbance was determined at 540 nm wavelength with a microplate reader (Multiskan GO, Thermo Scientific, Waltham, MA, USA).
# RAW 264.7 cells = experiment: Cell viability, MTT assay, with LPS treatment; format: cell-based, murine; details: up to 100 μM, with LPS treatment for 24 h
# Method: as §1, §2
# [3] = tested on: RTX-induced mouse ear edema; set-up: method as in PMID 10840958; details: 50 µg per ear, topical; cited from earlier work
# [4] = tested on: spontaneous synchronous Ca^2+ oscillations; set-up: method as in PMID 32237750; details: cited from earlier work
# [5] = tested on: indoleamine 2,3-dioxygenase 1 (IDO1); set-up: method as in doi:10.1039/C9QO00775J; details: cited from earlier work
# C. albicans = tested on: C. albicans; set-up: method as in PMID 22377027; details: against C. albicans; cited from earlier work
# [6] = tested on: iNOS and COX-2 proteins and mRNA expressions in RAW 264.7 macrophages; set-up: method as in not given; details: ref not given; cited from earlier work
# [7] = tested on: NO production in lipopolysaccharide activated RAW264.7 cells; set-up: method as in PMID 29197643; details: LPS-activated RAW264.7 cells, in vitro; read-out: IC50, inhibition of NO production; cited from earlier work
# [8] = RAW 264.7 cells activated with LPS
# [9] = Mus musculus, RAW264.7, 24 h, RAW 264.7 cells, LPS 1 µg/mL, 24 h, Griess assay, mean ± SD, n = 3
# [10] = RAW 264.7 cells, LPS 1 µg/mL, 24 h, Griess assay, mean ± SD, n = 3
Compound,"CC50 at 24 h [1, 8] [µM]","SI, selectivity index, calculated by CC50/IC50 ([2]; RAW 264.7 cells)","IC50 [2, 9] [µM]",further results
"COc1cc(O)c2c(c1)C1(OC2=O)C(C)=CC(=O)C1O (racemic) [Compound 10, ±talaroflavone]",27.2 ± 1.6,1.1,23.9 ± 3.3,–
"CC(O)C(C)OC(=O)CC1OC(=O)c2c(O)cccc21 (centres unmarked) [Compound 1, alternabenzofuran A]",> 100,–,> 50,–
"C[C@H](O)[C@@H](C)OC(=O)C[C@@H]1OC(=O)c2c(O)cccc21 [Compound 2, alternabenzofuran B]",> 100,–,18.7 ± 2.35,"Cytotoxicity (cell proliferation/viability, MTT) (RAW 264.7 cells): did not show any significant cytotoxicity"
"CC1=CC(=O)C2(C)CCCC(C)(CO)C23CC13 (centres unmarked) [Compound 3, alternaterpenoid A]",24.9 ± 1.2,10.4,–,–
"CC1(C)CCCC2(C)C(=O)C=C(CO)C3CC312 (centres unmarked) [Compound 4, alternaterpenoid B]",> 100,–,~50,–
"COC(=O)C[C@@H]1OC(=O)c2c(O)cccc21 [Compound 5, isobenzofuranone A]",> 100,–,41.1 ± 4.78,–
"COc1cc(O)c2c(c1)C1=C(O)C(=O)C[C@@]1(C)OC2=O [Compound 7, (R)-1,6-dihydroxy-8-methoxy-3a-methyl-3,3a-dihydrocyclopenta[c]isochromene-2,5-dione]",20.6 ± 2.3,4.0,< 10,"IC50 [2, 10]: 5.2 ± 1.96 µM"
"COc1cc(O)c2c(=O)oc3c(c2c1)[C@@H](C)CC3=O [Compound 8, dihydroaltenuenes A]",> 100,–,> 50,–
"COc1cc(O)c2c(=O)oc3c(c2c1)[C@@H](C)C[C@@H]3O [Compound 9, phialophriol]",> 100,–,–,"Cytotoxicity (cell proliferation/viability, MTT) (RAW 264.7 cells): did not show any significant cytotoxicity"
"COc1cc(O)c2c(=O)oc3cc(O)cc(C)c3c2c1 [Compound 11, alternariol-9-O-methyl ether]",–,–,–,"Cytotoxicity (cell proliferation/viability, MTT) (RAW 264.7 cells): did not show any significant cytotoxicity; CC50 at 24 h [1]: > 100 µM; IC50 ([2]; Mus musculus, RAW264.7, 24 h): 39 ± 1.92 µM"
"Cc1cc(O)cc2oc(=O)c3c(O)cc(O)cc3c12 [Compound 12, alternariol]",–,3.0,–,"CC50 at 24 h [1]: 50.4 ± 2.1 µM; IC50 ([2]; Mus musculus, RAW264.7, 24 h): 16.6 ± 1.6 µM"
"COc1cc(O)c2c(=O)oc3cc(O)c(C)cc3c2c1 [Compound 13, 2-methyl-9-methoxy alternariol]",–,2.0,–,"CC50 at 24 h [1]: 48.2 ± 2.6 µM; IC50 ([2]; Mus musculus, RAW264.7, 24 h): 24.5 ± 4.51 µM"
"COc1cc(O)c2c(=O)oc3c(O)c(O)cc(C)c3c2c1 [Compound 14, 3’-hydroxyalternariol 5-O-methyl ether]",–,–,< 10,"Cytotoxicity (cell proliferation/viability, MTT) (RAW 264.7 cells): did not show any significant cytotoxicity; CC50 [1]: > 100 µM; IC50 [2, 10]: 5.9 ± 0.48 µM"
"COc1cc(O)c2c(=O)oc3cc(CO)cc(O)c3c2c1 [Compound 15, alternariol-1’-hydroxy-9-methyl ether]",–,1.9,–,"CC50 at 24 h [1]: 48.7 ± 1.8 µM; IC50 ([2]; Mus musculus, RAW264.7, 24 h): 26.3 ± 3.99 µM"
"COc1cc(O)c2c(c1)C1=CC(=O)C(O)=CC1(C)OC2=O (centres unmarked) [Compound 16, dehydroaltenusin]",–,–,1.3 to 41.1,–
"COc1cc(O)c2c(c1)-c1cc(O)c(O)cc1COC2=O [Compound 17, alteryulactone]",–,–,–,"Cytotoxicity (cell proliferation/viability, MTT) (RAW 264.7 cells): did not show any significant cytotoxicity; CC50 at 24 h [1]: > 100 µM; IC50 ([2]; Mus musculus, RAW264.7, 24 h): 16.2 ± 2.62 µM"
"COC(=O)C1Cc2cccc(O)c2C(=O)O1 (centres unmarked) [Compound 18, tenuissimasatin]",28.3 ± 2.5,1.2,24.5 ± 1.06,–
"COc1cc(O)c(C(=O)O)c(-c2cc(O)c(O)cc2C)c1 [Compound 20, altenusin]",–,–,–,"CC50 at 24 h [1]: > 100 µM; IC50 ([2]; Mus musculus, RAW264.7, 24 h): 25.4 ± 3.03 µM"
"Cc1cc(=O)c2c(C)cc(O)cc2o1 [Compound 21, 2,5-dimethyl-7-hydroxychromone]",17.3 ± 2.2,1.2,14.9 ± 1.92,–
"C[C@H]1CC(=O)OC[C@H]1O [Compound 22, walterolactone C]",46.4 ± 1.7,3.1,14.9 ± 1.92,–
CCC(C)[C@]1(O)NC(=O)[C@@H](C)n2c1nc1c(c2=O)C=C(OC)C=CO1 (some centres unmarked) [Oxepinamide A],–,–,–,"Inhibition rate, ear edema [3]: 82%"
C=C1CC[C@H]2C(C)(C)[C@@H](O)CC[C@]2(C)[C@H]1CC(=O)[C@]1(O)C=C(CSC[C@H](O)C(=O)OC)C(=O)C1 [alternarin A],–,–,–,Inhibition of spontaneous synchronous Ca2+ oscillations [4]: effective inhibition
COC1=CC(=O)c2c(O)c3c(c4c2[C@]12CC(=O)C[C@H]2[C@@]1(C[C@H](O)[C@H](O)CO1)O4)C[C@](C)(O)[C@H](O)C3 [anthrininone A],–,–,–,Inhibition activity against IDO1 [5]: significant inhibition activity
COc1cc([C@H](Cc2ccccc2)NC(C)=O)oc(=O)c1 [pyrophen],–,–,–,Anti-fungal activity (C. albicans): displayed anti-fungal activity
CC1=C[C@@H](O)[C@H]2C[C@@H](C)C[C@@H](C)[C@@H]2[C@H]1/C=C/C=C/C(=O)O [tanzawaic acid Q],–,–,–,Effect on LPS-induced iNOS and COX-2 proteins and mRNA expressions [6]: inhibited
Amestolkolides B,–,–,–,IC50 [7]: 1.6 ± 0.1 µM
